The values below come from patent publication US8507506B2, “Theophylline derivative inhibits osteoporosis” (Kaohsiung Medical University, priority 2011, dated 2013).

Structures are written as SMILES.

Type in all cases: cell-based
In test [1] the test system is MMP-9 protein in RAW264.7 cells. Description: Western blot, amount of MMP-9 protein induced by RANKL. To be noted: RANKL 24 hours, FIG. 19. On the procedure:
KMUP-1 influences there major up-stream signal transduction pathways which are related to RANK/RANKL. Western blot is used to estimate the amount of matrix metalloproteinase (MMP)-2 and MMP-9 which are related to the dissolution of osteoclast-like cells, and the enzyme activity of MMP-2 and MMP-9 are estimated via Gelatin Zymography. […] The proteins were collected by scraping and were centrifuged (13,000 rpm, 4° C., 30 minutes). The supernatant was stored in an eppendorf in −80° C. • c) Concentrations of the proteins were examined by Bio-Red DC Protein Assay. After knowing the concentrations, the proteins were diluted to specific concentrations by adding ddH2O. One forth volume of the diluted proteins of sample buffer was added into the diluted proteins and was put in boiled water for 5 min and then was chilled on ice for 5 minutes. After short time centrifugation, the diluted proteins could be injected into wells of a gel. The gel was run at 100 V for 10 minutes until the proteins were driven to the intersection between a loading gel and a running gel. Then, the voltage was swopped to 200 V for 40 minutes. • d) A PVDF membrane was immersed in Methanol for 2 minutes. After two washes in ddH2O, the membrane was immersed in transfer buffer for 15 minutes. A SDS-PAGE was put on the membrane, and wet paper was flanked them. […]

For test [2], the system named is HMGB1 in RAW264.7 cells. Description: Western blot, RANKL-induced transfer of HMGB1 from nucleus to extracellular space. Particulars: 5 μM, 7.5 μM and 10 μM for 24 hours, 10 ng/ml RANKL 18 hours, dose dependent, FIGS. 22(B), 23(B), 24(B). Here is the method: HMGB1 can affect the proliferation and differentiation of osteoclasts, the HMGB1 which originally exists in a cell nuclear is stimulated by RANKL to transfer to cytoplasm or extracellular space, and the HMGB1 in the extracellular space like pro-inflammatory cytokines can regulate the proliferation and differentiation of osteoclasts via RANK/RANKL pathway or other pathways. 10 ng/ml RANKL is used to stimulate RAW264.7 cells, and the extracellular medium, cytoplasm and nucleus are separated at 0 hours, 6 hours, 12 hours, 18 hours and 24 hours, and then via western blot to confirm the expression level of the HMGB1. After stimulating 24 hours, the HMGB1 obviously transfers to the extracellular space from the nucleus and the cytoplasm (FIGS. 22(A), 23(A), and 24(A)). Moreover, when it is stimulated by RANKL for 18 hours, the effect of transferring to the extracellular space and the cytoplasm is most obvious. Different concentrations of KMUP-1 are administrated for 24 hours, and 10 ng/ml RANKL is used to stimulate for 18 hours. […] Nuclear proteins were extracted according to the instructions of NE-PER kit. 2.5×10^6 cells were plated per well in 24-well plates. […] Subsequently, the cells were added by 5.5 μ[…] and shaken for 5 seconds and then put on ice for 1 minute. After that, the cells were shaken again for 5 seconds and centrifuged (10,000 rpm, 4° C., 5 minutes). […]
(Immunoblotting shows a protein as a band on a membrane.)

Test [3] relates to RAW264.7 cells. Description: MTT assay, proliferation induced by RANKL. To be noted: RAW264.7, 5 μM, 7.5 μM, 10 μM, FIG. 1.
Method: Cells were plated onto 96-well plates at a density of 10^3 cells per well. After 24 hours incubation, the different concentrations of the different drugs were administrated into the plates. […] Subsequently, the medium was removed, and 100 μl/well isopropanol was added to solved formazan. The plates were shaken for 15 minutes and stood for 15 minutes, and then the absorbance was measured at wavelength of 540 nm and 630 nm. The ratio of the absorbance of treated cells relative to that of the control cells was calculated and expressed as a percentage of cell survival.

For `Cn1c(=O)c2c(ncn2CCN2CCN(c3ccccc3Cl)CC2)n(C)c1=O` [KMUP-1, 7-[2-[4-(2-Chlorophenyl)piperazin-1-yl]ethyl] theophylline], the “amount of MMP-9 protein induced by RANKL” value in test [1] is “can efficiently inhibit the amount of MMP-2 and MMP-9 proteins”. Also, in test [2], the “RANKL-induced transfer of HMGB1 to extracellular space from cell nucleus” value was “can inhibit that RANKL induces HMGB1 to transfer to extracellular space from a cell nuclear”. Besides, in test [3], the “cell proliferation induced by RANKL (MTT assay)” value was “can inhibit the cell proliferation induced by RANKL”.
